{
  "source": "patent US20090317838A1",
  "about": "“DETECTION OF BACTERIAL PEPTIDOGLYCAN-LIKE COMPOUNDS” (priority 2008, published 2009)",
  "key": {"NOD2": {"molecular_target": "T1, NOD2 (Homo sapiens, UniProt Q9HC29)", "T1 construct": "host or cells: HEK293T", "experiment": "NF-κB-luciferase reporter assay in HEK293T cells transfected with NOD2", "type": "cell-based", "settings": "for response of NOD2-transfected cells to inflammatory cytokines: acts via endogenous receptors, compared with fsNOD2 cells", "description": "Human embryonic kidney HEK293T cells (American Type Culture Collection (“ATCC,”) Manassas, Va., USA) were cultured in Dulbecco's modified Eagle's medium (Invitrogen, Carlsbad, Calif., USA) supplemented with 10% fetal calf serum (“FCS”) (PAA Laboratories GmbH, Pasching, Austria). HEK293T cells were seeded into 24 well cell culture plates at a density of 10^5 cells/ml (500 μl/well) and transfected with various expression plasmids, as previously described (Girardin 2003a) (FIG. 1).\n(§1) Transfection was performed as described by Girardin et al., 2003a. HEK293T cells were transfected overnight using 1% FuGENE 6 transfection reagent (Roche Diagnostics, Mannheim, Germany) with 75 ng of the reporter plasmid pNF-kB-Luc (Stratagene, La Jolla, Calif. USA) and 1 ng p-UNO-hNODt (InvivoGen, San Diego, Calif. USA) or fsNOD2 expression plasmids (Begue et al. (2006); Chamaillard et al. (2003)). The plasmid pNF-κB-Luc is a 5.7 kb cis-reporting pNF-κB-Luc plasmid comprising an NF-κB enhancer region and a firefly luciferase gene controlled by a synthetic promoter that contains direct repeats of the transcription recognition sequences for the binding sites for NF-κB (Stratagene, Carlsbad, Calif., USA). The NOD2 3020InsC frameshift mutation was introduced using the QuikChange XL site-directed mutagenesis kit (Stratagene, Carlsbad, Calif., USA). The entire coding region was verified by sequencing and the size of the encoded product was verified by immunoblotting (Girardin et al., 2003b). A total plasmid concentration of 250 ng was achieved by addition of pcDNA3.1 vector.\nFollowing a twenty hour transfection period, 50 μl of plasma was added into the wells containing the transfected cells. Purified peptidoglycan, diluted in plasma, from S. aureus (Sigma, St. Louis, Mo., USA) and E. coli (kind gift of Dominique Mengin-Lecreulx or InviroGen, San Diego, Calif., USA) served as positive controls. After six hours of peptidoglycan stimulation, the cell supernatant was removed and the cells were lysed with 100 μl of lysis buffer (25 mM Tris-phosphate pH 8, 8 mM MgCl2, 1 mM dithiothreitol, 15% glycerol, and 1% Triton X-100). Luciferase expression was measured from a 10 μl aliquot of cell extract using a microplate luminometer (LB960 luminometer centro, Berthold Technologies, Bad Wildbad, Germany) after addition of 100 μl of substrate buffer to a final concentration of 1.8 mM luciferin and 1 mM ATP. Each measurement was performed in triplicate. The detection level of the assay is at least 0.15 ug/ml PGN, determined by adding purified PGN to healthy donor plasma.\nTo validate the experimental system, NF-κB activation in HEK293T cells co-transfected with pNF-κB-Luc and pUNO-hNOD2 was tested in response to stimulation with both MPD and PGN derived from S. aureus (FIG. 2). […]"}, "[1]": {"molecular_target": "T2, NOD2 3020InsC frameshift mutant (fsNOD2) (Homo sapiens, UniProt Q9HC29, L1007P)", "T2 construct": "expressed in transfected cells; host or cells: HEK293T", "T2 sequence (Q9HC29 1-1007 L1007P)": "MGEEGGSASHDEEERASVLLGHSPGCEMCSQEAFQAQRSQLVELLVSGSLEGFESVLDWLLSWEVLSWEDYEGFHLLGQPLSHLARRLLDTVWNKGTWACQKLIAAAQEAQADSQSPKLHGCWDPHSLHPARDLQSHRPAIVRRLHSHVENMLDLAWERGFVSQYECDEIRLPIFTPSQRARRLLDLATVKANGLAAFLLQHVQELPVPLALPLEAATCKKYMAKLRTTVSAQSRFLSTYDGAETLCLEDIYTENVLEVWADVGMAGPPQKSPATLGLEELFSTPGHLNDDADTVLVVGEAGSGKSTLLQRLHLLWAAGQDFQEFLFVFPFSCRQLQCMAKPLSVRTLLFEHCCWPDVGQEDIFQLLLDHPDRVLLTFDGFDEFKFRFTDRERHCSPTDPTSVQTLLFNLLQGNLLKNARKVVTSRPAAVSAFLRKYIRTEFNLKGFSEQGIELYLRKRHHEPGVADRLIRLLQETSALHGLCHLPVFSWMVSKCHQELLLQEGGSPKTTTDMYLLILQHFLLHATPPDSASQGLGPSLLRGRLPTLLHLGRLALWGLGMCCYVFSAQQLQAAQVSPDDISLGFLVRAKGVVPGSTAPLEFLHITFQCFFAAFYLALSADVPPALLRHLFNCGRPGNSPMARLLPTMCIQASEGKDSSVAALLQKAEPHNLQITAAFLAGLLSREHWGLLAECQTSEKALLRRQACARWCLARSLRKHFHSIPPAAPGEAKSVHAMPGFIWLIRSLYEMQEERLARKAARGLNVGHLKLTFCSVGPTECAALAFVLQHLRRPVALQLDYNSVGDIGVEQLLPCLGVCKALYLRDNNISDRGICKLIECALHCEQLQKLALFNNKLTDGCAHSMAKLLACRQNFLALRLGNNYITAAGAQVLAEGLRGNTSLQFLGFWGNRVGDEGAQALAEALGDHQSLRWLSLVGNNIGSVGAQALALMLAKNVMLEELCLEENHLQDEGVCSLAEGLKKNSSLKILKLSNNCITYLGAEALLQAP", "experiment": "NF-κB-luciferase reporter assay in HEK293T cells transfected with frameshift NOD2 (fsNOD2)", "type": "cell-based", "settings": "HEK293T co-transfected with pNF-κB-Luc and NOD2 3020InsC", "description": "as §1\nThe NOD2 3020InsC variant comprises a Leu1007-Pro substitution in the tenth leucine-rich region followed by a premature stop codon. It activates the NF-κB pathway to the same extent as wild-type NOD2 when overexpressed, but is unable to detect MDP or PGN (Girardin et al., 2003b).\nThe specificity of the system was checked by transfecting an expression plasmid for frameshift NOD2 (fsNOD2), a mutant unable to activate NF-κB in response to MDP (FIG. 11E)."}},
  "data": [
    {"compound": "tumor necrosis factor-α [TNF-α]", "values": [
      {"measurement": "response of NOD2-transfected cells to inflammatory cytokines", "setting": "NOD2", "result": "similarly responsive"},
      {"measurement": "luciferase / NF-κB response in fsNOD2-transfected cells", "setting": "[1]", "result": "similarly responsive"}
    ]},
    {"compound": "interleukin 1β [IL-1β]", "values": [
      {"measurement": "response of NOD2-transfected cells to inflammatory cytokines", "setting": "NOD2", "result": "similarly responsive"},
      {"measurement": "luciferase / NF-κB response in fsNOD2-transfected cells", "setting": "[1]", "result": "similarly responsive"}
    ]},
    {"compound": "CC(=O)N[C@H]1C(O)O[C@H](CO)[C@@H](O)[C@@H]1O[C@H](C)C(=O)N[C@@H](C)C(=O)N[C@H](CCC(=O)O)C(N)=O", "note": "(mixture of isomers) [MDP, muramyl dipeptide]", "values": [
      {"measurement": "NF-κB activation (luciferase expression)", "setting": "NOD2; 300 pM MDP, HEK293T co-transfected with pNF-κB-Luc and pUNO-hNOD2", "result": "induced NF-κB activation"},
      {"measurement": "signal in NOD2 reporter system (luciferase, RLU)", "setting": "NOD2; 6 hours of incubation, without plasma", "result": "positive signals"},
      {"measurement": "luciferase / NF-κB response in fsNOD2-transfected cells", "setting": "[1]", "result": "no increase in luciferase"}
    ]}
  ]
}
